Read-outs that look alike come from different tables or passages of the source. Bridge positions count the residues as written; N and C are the ends. Square brackets hold non-standard residues; d marks the D form. Peptide text beside a SMILES is read from it.
Assays:
isolated rabbit ileum = test system: isolated rabbit ileum
Procedure: The analogs are tested in vitro in isolated rabbit ileum using the modified Ussing chamber technique, as described in Amer. J. of Physiol., 225:776-780 (1973). Unidirectional chloride fluxes are determined and used to characterize bi-directional fluxes following the addition of an SS-analog. Changes are measured with varying concentrations, and the potency to inhibit ion transport is quantitated and expressed as a percentage of the potency of SS-14.

secretion of insulin = conditions: in vivo
Procedure: (§1) In vivo experiments are carried out with the analogs, using the procedure described in Brown et al., Metabolism (1976) Vol. 25, pp. 1501-1503, to determine the potency, relative to somatostatin-14, to inhibit the secretion of glucagon and insulin stimulated by the administration of arginine to groups of six rats.

secretion of glucagon = test system: secretion of glucagon; set-up: species or system rats; conditions: in vivo
Procedure: as §1

[1] = test system: release of growth hormone induced by isobutyl methyl xanthine in pituitary cells; type: cell-based, rat
Procedure: To determine the effectiveness of the peptides to inhibit the release of growth hormone, in vitro radioimmunoassays are carried out using the SS analogs in side-by-side comparison with equimolar concentrations of somatostatin-14 having a known effectiveness to inhibit the release of growth hormone induced by the application of isobutyl methyl xanthine to pituitary cells. Cultures are used which include cells of rat pituitary glands removed some four to five days previously in a system that minimizes enzymatic degradation, generally following the procedure set forth in Vale et al., Methods in Enzymology, Hormones and Cyclic Nucleotides (1975) Vol. 37, p. 82. Both cultures of a defined standard medium and cultures which are considered optimal for the secretion of growth hormone, as a result of having additions of either 2% or 10% of serum from a foetal calf, are used for the comparative testing.

[2] = cultured rat pituitary cells, isobutyl methyl xanthine-induced release, SS-14 = 100
[3] = isolated rabbit ileum, Ussing chamber, chloride fluxes, SS-14 = 100
[4] = arginine-stimulated, rats, SS-14 = 100

For `C[C@H](N)C(=O)NCC(=O)N[C@H]1CSSC[C@@H](C(=O)O)NC(=O)[C@H](CO)NC(=O)[C@H]([C@@H](C)O)NC(=O)[C@H](CCC(=O)O)NC(=O)[C@H]([C@@H](C)O)NC(=O)[C@H](CCCCN)NC(=O)[C@H](Cc2c[nH]c3ccccc23)NC(=O)[C@H](Cc2ccccc2)NC(=O)[C@H](Cc2ccccc2)NC(=O)[C@H](CC(N)=O)NC(=O)[C@H](CCCCN)NC1=O` [Peptide 12, [Glu^11]--SS] (H-AGCKNFFWKTETSC-OH; disulfide 3-14), the “Ion Transport (potency to inhibit ion transport expressed as a percentage of the potency of SS-14)” value (isolated rabbit ileum) was 9%, the “Insulin (potency to inhibit insulin secretion relative to SS-14)” value (secretion of insulin; rat) was < 1% and the “Glucagon (potency to inhibit glucagon secretion relative to SS-14)” value (secretion of glucagon; rat) was < 1%.

In the case of `C[C@H](N)C(=O)NCC(=O)N[C@H]1CSSC[C@@H](C(=O)O)NC(=O)[C@H](CO)NC(=O)[C@H]([C@@H](C)O)NC(=O)[C@H](Cc2ccccc2)NC(=O)[C@H]([C@@H](C)O)NC(=O)[C@H](CCCCN)NC(=O)[C@H](Cc2c[nH]c3ccccc23)NC(=O)[C@H](Cc2ccccc2)NC(=O)[C@H](Cc2ccccc2)NC(=O)[C@H](CC(N)=O)NC(=O)[C@H](CCCCN)NC1=O` [SS-14, somatostatin], the “GH (potency for the inhibition of GH release relative to SS-14)” value [1, 2] is reported as 100%, the “Ion Transport (potency to inhibit ion transport expressed as a percentage of the potency of SS-14)” value (isolated rabbit ileum; [3]) is reported as 100% and the “Insulin (potency to inhibit insulin secretion relative to SS-14)” value (secretion of insulin; [4]) is reported as 100%. The “Glucagon (potency to inhibit glucagon secretion relative to SS-14)” value (secretion of glucagon; [4]) was 100%.

For `C[C@H](N)C(=O)NCC(=O)N[C@H]1CSSC[C@@H](C(=O)O)NC(=O)[C@H](CO)NC(=O)[C@H]([C@@H](C)O)NC(=O)[C@H](Cc2c[nH]cn2)NC(=O)[C@H]([C@@H](C)O)NC(=O)[C@H](CCCCN)NC(=O)[C@H](Cc2c[nH]c3ccccc23)NC(=O)[C@H](Cc2ccccc2)NC(=O)[C@H](Cc2ccccc2)NC(=O)[C@H](CC(N)=O)NC(=O)[C@H](CCCCN)NC1=O` [Peptide 10, [His^11]--SS] (H-AGCKNFFWKTHTSC-OH; disulfide 3-14), the “Ion Transport (potency to inhibit ion transport expressed as a percentage of the potency of SS-14)” value (isolated rabbit ileum) was 48%, the “Insulin (potency to inhibit insulin secretion relative to SS-14)” value (secretion of insulin; rat) was < 1% and the “Glucagon (potency to inhibit glucagon secretion relative to SS-14)” value (secretion of glucagon; rat) was < 1%.

In the case of `C[C@H](N)C(=O)NCC(=O)N[C@H]1CSSC[C@@H](C(=O)O)NC(=O)[C@H]([C@@H](C)O)NC(=O)[C@H](Cc2ccccc2)NC(=O)[C@H]([C@@H](C)O)NC(=O)[C@H](CCCCN)NC(=O)[C@H](Cc2c[nH]c3ccccc23)NC(=O)[C@H](Cc2ccccc2)NC(=O)[C@H](Cc2ccccc2)NC(=O)[C@H](CC(N)=O)NC(=O)[C@H](CCCCN)NC1=O` [Peptide 14, des-Ser^13 --SS] (H-AGCKNFFWKTFTC-OH; disulfide 3-13), the “GH (potency for the inhibition of GH release relative to SS-14)” value [1] is reported as 2%, the “Ion Transport (potency to inhibit ion transport expressed as a percentage of the potency of SS-14)” value (isolated rabbit ileum) is reported as 9% and the “Insulin (potency to inhibit insulin secretion relative to SS-14)” value (secretion of insulin; rat) is reported as < 1%. For the same molecule, the “Glucagon (potency to inhibit glucagon secretion relative to SS-14)” value (secretion of glucagon; rat) was < 1%.

In the case of `C[C@H](N)C(=O)NCC(=O)N[C@H]1CSSC[C@@H](C(=O)O)NC(=O)[C@H](CO)NC(=O)[C@H]([C@@H](C)O)NC(=O)[C@H](Cc2ccccc2)NC(=O)[C@H]([C@@H](C)O)NC(=O)[C@H](CCCCN)NC(=O)[C@H](Cc2c[nH]c3ccccc23)NC(=O)[C@H](Cc2ccccc2)NC(=O)[C@H](Cc2ccccc2)NC(=O)[C@H](CCCCN)NC1=O` [Peptide 13, des-Asn^5 --SS] (H-AGCKFFWKTFTSC-OH; disulfide 3-13), the “GH (potency for the inhibition of GH release relative to SS-14)” value [1, 2] is reported as 4%, the “Ion Transport (potency to inhibit ion transport expressed as a percentage of the potency of SS-14)” value (isolated rabbit ileum; [3]) is reported as 11% and the “Insulin (potency to inhibit insulin secretion relative to SS-14)” value (secretion of insulin; [4]) is reported as 10%. The “Glucagon (potency to inhibit glucagon secretion relative to SS-14)” value (secretion of glucagon; [4]) was < 1%.

For des-AA^1,2,[β-Nal^11 ]--SS [Peptide 11], the “Ion Transport (potency to inhibit ion transport expressed as a percentage of the potency of SS-14)” value (isolated rabbit ileum; [3]) was 107%.

`C[C@H](N)C(=O)NCC(=O)N[C@H]1CSSC[C@@H](C(=O)O)NC(=O)[C@H](CO)NC(=O)[C@H]([C@@H](C)O)NC(=O)[C@H](CCCNC(=N)N)NC(=O)[C@H]([C@@H](C)O)NC(=O)[C@H](CCCCN)NC(=O)[C@H](Cc2c[nH]c3ccccc23)NC(=O)[C@H](Cc2ccccc2)NC(=O)[C@H](Cc2ccccc2)NC(=O)[C@H](CC(N)=O)NC(=O)[C@H](CCCCN)NC1=O` [Peptide 2, [Arg^11]--SS] (H-AGCKNFFWKTRTSC-OH; disulfide 3-14) was tested, and the “Ion Transport (potency to inhibit ion transport expressed as a percentage of the potency of SS-14)” value (isolated rabbit ileum) was 291%, the “Insulin (potency to inhibit insulin secretion relative to SS-14)” value (secretion of insulin; rat) was 142% and the “Glucagon (potency to inhibit glucagon secretion relative to SS-14)” value (secretion of glucagon; rat) was < 1%.

In the case of `C[C@@H](O)[C@@H]1NC(=O)[C@H](Cc2c[nH]c3ccccc23)NC(=O)[C@H]([C@@H](C)O)NC(=O)[C@H](CCCCN)NC(=O)[C@H](Cc2c[nH]c3ccccc23)NC(=O)[C@H](Cc2ccccc2)NC(=O)[C@H](Cc2ccccc2)NC(=O)[C@H](CC(N)=O)NC(=O)[C@H](CCCCN)NC(=O)[C@@H](N)CSSC[C@@H](C(=O)O)NC(=O)[C@H](CO)NC1=O` [Peptide 3, des-AA^1,2,[Trp^11]--SS] (H-CKNFFWKTWTSC-OH; disulfide 1-12), the “Ion Transport (potency to inhibit ion transport expressed as a percentage of the potency of SS-14)” value (isolated rabbit ileum) is reported as 405%.

With `C[C@@H](O)[C@@H]1NC(=O)[C@H](Cc2ccccc2)NC(=O)[C@H]([C@@H](C)O)NC(=O)[C@H](CCCCN)NC(=O)[C@H](Cc2c[nH]c3ccccc23)NC(=O)[C@H](Cc2ccccc2)NC(=O)[C@H](Cc2ccccc2)NC(=O)[C@H](CC(N)=O)NC(=O)[C@H](CCCCN)NC(=O)[C@@H](N)CSSC[C@@H](C(=O)O)NC(=O)[C@H](CO)NC1=O` [Peptide 9, des-Ala^1,Gly^2 --SS] (H-CKNFFWKTFTSC-OH; disulfide 1-12) the “GH (potency for the inhibition of GH release relative to SS-14)” value [1, 2] was 60%, the “Ion Transport (potency to inhibit ion transport expressed as a percentage of the potency of SS-14)” value (isolated rabbit ileum; [3]) was 231% and the “Insulin (potency to inhibit insulin secretion relative to SS-14)” value (secretion of insulin; [4]) was 61%.

`C[C@@H](O)[C@@H]1NC(=O)[C@H](CCCCN)NC(=O)[C@@H](Cc2c[nH]c3ccccc23)NC(=O)[C@H](Cc2ccccc2)NC(=O)[C@H](Cc2ccccc2)NC(=O)[C@@H](N)CSSC[C@@H](C(=O)O)NC(=O)[C@H](CO)NC(=O)[C@H](Cc2c[nH]c3ccccc23)NC1=O` [Peptide 4, des-AA^1,2,4,5,12,[D-Trp^8,Trp^11]--SS] (H-CFF[dW]KTWSC-OH; disulfide 1-9) was tested, and the “Ion Transport (potency to inhibit ion transport expressed as a percentage of the potency of SS-14)” value (isolated rabbit ileum) was 37%.

In the case of `C[C@H](N)C(=O)NCC(=O)N[C@H]1CSSC[C@@H](C(=O)O)NC(=O)[C@H](CO)NC(=O)[C@H]([C@@H](C)O)NC(=O)[C@H](C)NC(=O)[C@H]([C@@H](C)O)NC(=O)[C@H](CCCCN)NC(=O)[C@H](Cc2c[nH]c3ccccc23)NC(=O)[C@H](Cc2ccccc2)NC(=O)[C@H](Cc2ccccc2)NC(=O)[C@H](CC(N)=O)NC(=O)[C@H](CCCCN)NC1=O` [Peptide 5, [Ala^11]--SS] (H-AGCKNFFWKTATSC-OH; disulfide 3-14), the “GH (potency for the inhibition of GH release relative to SS-14)” value [1] is reported as 3%, the “Ion Transport (potency to inhibit ion transport expressed as a percentage of the potency of SS-14)” value (isolated rabbit ileum) is reported as 52% and the “Insulin (potency to inhibit insulin secretion relative to SS-14)” value (secretion of insulin; rat) is reported as < 10%.
